Laboratory results: the NIST ThermoML archive (doi:10.1021/je034218n)

Conditions: Liquid, vibrating tube

COCCOCCO [2-(2-methoxyethoxy)ethanol]
mass density [kg/m3]
Conditions	100 kPa	1000 kPa	2500 kPa	5000 kPa	7500 kPa	10000 kPa	15000 kPa	20000 kPa	25000 kPa
283.15 K	1028.5	1029	1029.8	1031.2	1032.5	1033.9	1036.4	1039	1041.4
293.15 K	1019.5	1020	1020.9	1022.3	1023.7	1025.2	1027.9	1030.5	1033.1
303.15 K	1010.8	1011.3	1012.2	1013.6	1015	1016.4	1019.3	1022.1	1024.8
313.15 K	1002	1002.6	1003.5	1005.1	1006.7	1008.2	1011.2	1014.1	1016.9
323.15 K	993.2	993.9	994.9	996.6	998.3	1000	1003.2	1006.2	1009.2
333.15 K	983.9	984.6	985.6	987.4	989.1	990.8	994.1	997.2	1000.2
343.15 K	975.2	975.8	977	978.8	980.6	982.4	985.9	989.2	992.4
353.15 K	965.7	966.4	967.6	969.5	971.4	973.3	976.9	980.4	983.7

CCOCCOCCO [3,6-dioxa-1-octanol]
mass density [kg/m3]
Conditions	100 kPa	1000 kPa	2500 kPa	5000 kPa	7500 kPa	10000 kPa	15000 kPa	20000 kPa	25000 kPa
283.15 K	997.7	998.2	999.1	1000.6	1002	1003.4	1006.1	1008.8	1011.3
293.15 K	988.4	988.9	989.8	991.3	992.8	994.3	997.2	999.9	1002.6
303.15 K	979.5	980.1	981.1	982.6	984.2	985.8	988.8	991.7	994.6
313.15 K	970.6	971.2	972.2	973.9	975.5	977.1	980.3	983.4	986.3
323.15 K	961.5	962.1	963.2	965	966.8	968.5	971.9	975.1	978.2
333.15 K	952.4	953.1	954.3	956.1	958	959.7	963.2	966.5	969.8
343.15 K	943.4	944.1	945.3	947.3	949.2	951.1	954.8	958.3	961.6
353.15 K	934.1	934.9	936.1	938.2	940.2	942.2	946	949.7	953.2
